Results as given in patent US20230023092A1, “TREATMENT OF DEPRESSION AND OTHER VARIOUS DISORDERS WITH PSILOCYBIN” (COMPASS […], priority 2019, published 2023).

System: healthy subjects
Assay: Life Changes Inventory (LCI)
Assay type: in vivo, human
Description: In some embodiments, the Life Changes Inventory (LCI) questionnaire is utilized to evaluate the safety and/or efficacy of psilocybin. The LCI is designed as a questionnaire to investigate those variables present in the day-to-day experience of adults that might relate either to stability or decline of intellectual ability.
The following list of outcome measures are non-exhaustive. • a. The short-term change from Baseline (Day −1 [Visit 2]) to Day 7 (Visit 5) in cognitive measures of attention, spatial and working memory and executive function was measured by a composite score of the CANTAB Panel (Spatial Working Memory [SWM], Rapid Visual Information Processing [RVP], Paired Associates Learning [PAL]). • b. The short-term change from Baseline (Day −1 [Visit 2]) to Day 7 (Visit 5) in Social Cognition Panel scales (Pictorial Empathy Test [PET], Reading the Mind in the Eyes Test [RMET], Toronto Empathy Questionnaire [TEQ], Social Value Orientation [SVO], Scale of Social Responsibility [SSR]). • c. The change from Baseline (Day −1 [Visit 2]) to Day 28 (Visit 6) in cognitive measures of attention, spatial and working memory and executive function as measured by a composite score of the CANTAB Panel (SWM, RVP, PAL). • d. The long-term change from Baseline (Day −1 [Visit 2]) to Day 84 (Visit 7) in Social Cognition Panel scales (PET, RMET, TEQ, SVO, SSR). • e. Dose-related differences between cognitive effects of psilocybin at Baseline (Day −1 [Visit 2]), Day 7 (Visit 5) and Day 28 (Visit 6), as measured by a composite score of the CANTAB Panel (SWM, RVP, PAL). • f. Dose-related differences between psychological effects of psilocybin at Baseline (Day −1 [Visit 2]), Day 7 (Visit 5) and Day 84 (Visit 7), as measured by Social Cognition Panel scales (PET, RMET, TEQ, SVO, SSR). • g. Differences in cognitive effects of psilocybin between psilocybin-naïve and experienced subjects at Baseline (Day −1 [Visit 2]), Day 7 (Visit 5) and Day 28 (Visit 6), as measured by a composite score of the CANTAB Panel (SWM, RVP, PAL). • h. Differences in Positive and Negative Affect Schedule (PANAS) after study drug administration on Day 0 (Visit 3). • i. Differences between psilocybin and placebo in the Emotion Recognition Test (ERT), Intra-Extra Dimensional Set Shift (IED), One Touch Stockings (OTS), Verbal Fluency and Digit Span Forward at Day 7 (Visit 5). • j. A composite score of the CANTAB Panel, including the following tests: • i. Spatial Working Memory (SWM) (performed at Visit 2, Visit 5, and Visit 6). • ii. Rapid Visual Information Processing (RVP) (performed at Visit 2, Visit 5, and Visit 6). • iii. Paired Associates Learning (PAL) (performed at Visit 2, Visit 5, and Visit 6). • k. Cognitive Flexibility Panel • i. Emotion Recognition Task (ERT) (performed at Visit 5). • ii. Intra-Extra Dimensional Set Shift (IED) (performed at Visit 5). • iii. One Touch Stockings (OTS) (performed at Visit 5). • iv. Verbal Fluency (performed at Visit 5). • v. Digit Span Forward (performed at Visit 5). • l. Five Dimension Altered States of Consciousness questionnaire (5D-ASC) (performed at Visit 3). • m. PANAS (performed at Visit 2 and Visit 3). • n. NEO-Five Factor Inventory (NEO-FFI) (performed at Visit 2, Visit 5, and Visit 7). • o. Symptom Checklist-90 item (SCL-90) (performed at Visit 2, Visit 5, and Visit 7). • p. Life Changes Inventory (LCI): The LCI measures changes in attitudes and values after near-death experiences often used to evaluate personal transformation following spiritually oriented experiences and practices. (performed at Visit 5 and Visit 7). • q. Social Cognition Panel scales • i. Pictorial Empathy Test (PET) (performed at Visit 2, Visit 5, and Visit 7). • ii. Reading the Mind in the Eyes Test (RMET) (performed at Visit 2, Visit 5, and Visit 7). • iii. Social Value Orientation (SVO) (performed at Visit 2, Visit 5, and Visit 7). • iv. Toronto Empathy Questionnaire (TEQ) (performed at Visit 2, Visit 5, and Visit 7). • v. […]

CN(C)CCc1c[nH]c2cccc(OP(=O)(O)O)c12 [Psilocybin, psilocybin]
LCI appreciation for life, LS mean difference Psilocybin 10 mg-Placebo (Day 7): 0.6 | LCI appreciation for life, LS mean difference Psilocybin 25 mg-Placebo (Day 7): 0.5 | LCI appreciation for life, LS mean difference Psilocybin (25 mg-10 mg) (Day 7): −0.2 | LCI appreciation of death, LS mean difference Psilocybin 10 mg-Placebo (Day 7): 0.1 | LCI appreciation of death, LS mean difference Psilocybin 25 mg-Placebo (Day 7): 0.1 | LCI appreciation of death, LS mean difference Psilocybin (25 mg-10 mg) (Day 7): −0.0 | LCI concern for others, LS mean difference Psilocybin 10 mg-Placebo (Day 7): 0.4 | LCI concern for others, LS mean difference Psilocybin 25 mg-Placebo (Day 7): 0.4 | LCI concern for others, LS mean difference Psilocybin (25 mg-10 mg) (Day 7): 0.0 | LCI concern for worldly achievement, LS mean difference Psilocybin 10 mg-Placebo (Day 7): −0.2 | LCI concern for worldly achievement, LS mean difference Psilocybin 25 mg-Placebo (Day 7): −0.1 | LCI concern for worldly achievement, LS mean difference Psilocybin (25 mg-10 mg) (Day 7): 0.1 | LCI concern social, LS mean difference Psilocybin 10 mg-Placebo (Day 7): 0.1 | LCI concern social, LS mean difference Psilocybin 25 mg-Placebo (Day 7): 0.2 | LCI concern social, LS mean difference Psilocybin (25 mg-10 mg) (Day 7): 0.1 | LCI quest for meaning, LS mean difference Psilocybin 10 mg-Placebo (Day 7): 0.4 | LCI quest for meaning, LS mean difference Psilocybin 25 mg-Placebo (Day 7): 0.4 | LCI quest for meaning, LS mean difference Psilocybin (25 mg-10 mg) (Day 7): 0.0 | LCI religiousness, LS mean difference Psilocybin 10 mg-Placebo (Day 7): −0.1 | LCI religiousness, LS mean difference Psilocybin 25 mg-Placebo (Day 7): 0.0 | LCI religiousness, LS mean difference Psilocybin (25 mg-10 mg) (Day 7): 0.1 | LCI self-acceptance, LS mean difference Psilocybin 10 mg-Placebo (Day 7): 0.7 | LCI self-acceptance, LS mean difference Psilocybin 25 mg-Placebo (Day 7): 0.5 | LCI self-acceptance, LS mean difference Psilocybin (25 mg-10 mg) (Day 7): −0.1 | LCI spirituality, LS mean difference Psilocybin 10 mg-Placebo (Day 7): 0.3 | LCI spirituality, LS mean difference Psilocybin 25 mg-Placebo (Day 7): 0.2 | LCI spirituality, LS mean difference Psilocybin (25 mg-10 mg) (Day 7): −0.1 | LCI-absolute change, LS mean difference Psilocybin 10 mg-Placebo (Day 7): 0.4 | LCI-absolute change, LS mean difference Psilocybin 25 mg-Placebo (Day 7): 0.3 | LCI-absolute change, LS mean difference Psilocybin (25 mg-10 mg) (Day 7): −0.1 | LCI appreciation for life, LS mean difference Psilocybin 10 mg-Placebo (Day 84): 0.6 | LCI appreciation for life, LS mean difference Psilocybin 25 mg-Placebo (Day 84): 0.5 | LCI appreciation for life, LS mean difference Psilocybin (25 mg-10 mg) (Day 84): −0.1 | LCI appreciation of death, LS mean difference Psilocybin 10 mg-Placebo (Day 84): 0.2 | LCI appreciation of death, LS mean difference Psilocybin 25 mg-Placebo (Day 84): 0.2 | LCI appreciation of death, LS mean difference Psilocybin (25 mg-10 mg) (Day 84): 0.0 | LCI concern for others, LS mean difference Psilocybin 10 mg-Placebo (Day 84): 0.4 | LCI concern for others, LS mean difference Psilocybin 25 mg-Placebo (Day 84): 0.5 | LCI concern for others, LS mean difference Psilocybin (25 mg-10 mg) (Day 84): 0.1 | LCI concern for worldly achievement, LS mean difference Psilocybin 10 mg-Placebo (Day 84): −0.2 | LCI concern for worldly achievement, LS mean difference Psilocybin 25 mg-Placebo (Day 84): −0.1 | LCI concern for worldly achievement, LS mean difference Psilocybin (25 mg-10 mg) (Day 84): 0.1 | LCI concern social, LS mean difference Psilocybin 10 mg-Placebo (Day 84): 0.1 | LCI concern social, LS mean difference Psilocybin 25 mg-Placebo (Day 84): 0.1 | LCI concern social, LS mean difference Psilocybin (25 mg-10 mg) (Day 84): 0.0 | LCI quest for meaning, LS mean difference Psilocybin 10 mg-Placebo (Day 84): 0.4 | LCI quest for meaning, LS mean difference Psilocybin 25 mg-Placebo (Day 84): 0.4 | LCI quest for meaning, LS mean difference Psilocybin (25 mg-10 mg) (Day 84): −0.0 | LCI religiousness, LS mean difference Psilocybin 10 mg-Placebo (Day 84): −0.0 | LCI religiousness, LS mean difference Psilocybin 25 mg-Placebo (Day 84): 0.0 | LCI religiousness, LS mean difference Psilocybin (25 mg-10 mg) (Day 84): 0.1 | LCI self-acceptance, LS mean difference Psilocybin 10 mg-Placebo (Day 84): 0.5 | LCI self-acceptance, LS mean difference Psilocybin 25 mg-Placebo (Day 84): 0.5 | LCI self-acceptance, LS mean difference Psilocybin (25 mg-10 mg) (Day 84): 0.0 | LCI spirituality, LS mean difference Psilocybin 10 mg-Placebo (Day 84): 0.4 | LCI spirituality, LS mean difference Psilocybin 25 mg-Placebo (Day 84): 0.4 | LCI spirituality, LS mean difference Psilocybin (25 mg-10 mg) (Day 84): −0.0 | LCI-absolute change, LS mean difference Psilocybin 10 mg-Placebo (Day 84): 0.4 | LCI-absolute change, LS mean difference Psilocybin 25 mg-Placebo (Day 84): 0.4 | LCI-absolute change, LS mean difference Psilocybin (25 mg-10 mg) (Day 84): −0.0 | LCI appreciation for life, LS mean (Psilocybin 10 mg, Day 7): 0.8 | LCI appreciation of death, LS mean (Psilocybin 10 mg, Day 7): 0.2 | LCI concern for others, LS mean (Psilocybin 10 mg, Day 7): 0.5 | LCI concern for worldly achievement, LS mean (Psilocybin 10 mg, Day 7): −0.2 | LCI concern social, LS mean (Psilocybin 10 mg, Day 7): 0.2 | LCI quest for meaning, LS mean (Psilocybin 10 mg, Day 7): 0.5 | LCI religiousness, LS mean (Psilocybin 10 mg, Day 7): −0.0 | LCI self-acceptance, LS mean (Psilocybin 10 mg, Day 7): 0.8 | LCI spirituality, LS mean (Psilocybin 10 mg, Day 7): 0.5 | LCI-absolute change, LS mean (Psilocybin 10 mg, Day 7): 0.5 | LCI appreciation for life, LS mean (Psilocybin 10 mg, Day 84): 0.8 | LCI appreciation of death, LS mean (Psilocybin 10 mg, Day 84): 0.2 | LCI concern for others, LS mean (Psilocybin 10 mg, Day 84): 0.5 | LCI concern for worldly achievement, LS mean (Psilocybin 10 mg, Day 84): −0.2 | LCI concern social, LS mean (Psilocybin 10 mg, Day 84): 0.2 | LCI quest for meaning, LS mean (Psilocybin 10 mg, Day 84): 0.5 | LCI religiousness, LS mean (Psilocybin 10 mg, Day 84): −0.0 | LCI self-acceptance, LS mean (Psilocybin 10 mg, Day 84): 0.6 | LCI spirituality, LS mean (Psilocybin 10 mg, Day 84): 0.5 | LCI-absolute change, LS mean (Psilocybin 10 mg, Day 84): 0.5 | LCI appreciation for life, LS mean (Psilocybin 25 mg, Day 7): 0.6 | LCI appreciation of death, LS mean (Psilocybin 25 mg, Day 7): 0.1 | LCI concern for others, LS mean (Psilocybin 25 mg, Day 7): 0.6 | LCI concern for worldly achievement, LS mean (Psilocybin 25 mg, Day 7): −0.2 | LCI concern social, LS mean (Psilocybin 25 mg, Day 7): 0.2 | LCI quest for meaning, LS mean (Psilocybin 25 mg, Day 7): 0.5 | LCI religiousness, LS mean (Psilocybin 25 mg, Day 7): 0.0 | LCI self-acceptance, LS mean (Psilocybin 25 mg, Day 7): 0.6 | LCI spirituality, LS mean (Psilocybin 25 mg, Day 7): 0.4 | LCI-absolute change, LS mean (Psilocybin 25 mg, Day 7): 0.4 | LCI appreciation for life, LS mean (Psilocybin 25 mg, Day 84): 0.7 | LCI appreciation of death, LS mean (Psilocybin 25 mg, Day 84): 0.3 | LCI concern for others, LS mean (Psilocybin 25 mg, Day 84): 0.7 | LCI concern for worldly achievement, LS mean (Psilocybin 25 mg, Day 84): −0.1 | LCI concern social, LS mean (Psilocybin 25 mg, Day 84): 0.2 | LCI quest for meaning, LS mean (Psilocybin 25 mg, Day 84): 0.5 | LCI religiousness, LS mean (Psilocybin 25 mg, Day 84): 0.0 | LCI self-acceptance, LS mean (Psilocybin 25 mg, Day 84): 0.6 | LCI spirituality, LS mean (Psilocybin 25 mg, Day 84): 0.5 | LCI-absolute change, LS mean (Psilocybin 25 mg, Day 84): 0.5
